Laboratory results reported in US9765060B2 (Gilead Sciences, Inc., priority 2014, dated 2017).
Like-named read-outs stand apart in the source and are kept apart here.

Target: PI3K isoform δ (Homo sapiens (Human), UniProt O00329)
Assay: TR-FRET assay of enzymatic activity of class I PI3K isoforms
[1] = read-out: IC50 (nM) for PI3K isoform δ (Table 3), TR-FRET, 2× Km ATP, 2 μM PIP2, incubated for 30 minutes at 25° C.
[2] = IC50 (nM) for PI3K isoform δ (Table 2), TR-FRET, 2× Km ATP, 2 μM PIP2, incubated for 30 minutes at 25° C.
[3] = read-out: IC50 (nM) for PI3K isoform δ (Table 2), TR-FRET, 2× Km ATP, 2 μM PIP2, incubated for 30 minutes at 25° C.

Chain of PI3K isoform δ (O00329 whole entry, canonical isoform): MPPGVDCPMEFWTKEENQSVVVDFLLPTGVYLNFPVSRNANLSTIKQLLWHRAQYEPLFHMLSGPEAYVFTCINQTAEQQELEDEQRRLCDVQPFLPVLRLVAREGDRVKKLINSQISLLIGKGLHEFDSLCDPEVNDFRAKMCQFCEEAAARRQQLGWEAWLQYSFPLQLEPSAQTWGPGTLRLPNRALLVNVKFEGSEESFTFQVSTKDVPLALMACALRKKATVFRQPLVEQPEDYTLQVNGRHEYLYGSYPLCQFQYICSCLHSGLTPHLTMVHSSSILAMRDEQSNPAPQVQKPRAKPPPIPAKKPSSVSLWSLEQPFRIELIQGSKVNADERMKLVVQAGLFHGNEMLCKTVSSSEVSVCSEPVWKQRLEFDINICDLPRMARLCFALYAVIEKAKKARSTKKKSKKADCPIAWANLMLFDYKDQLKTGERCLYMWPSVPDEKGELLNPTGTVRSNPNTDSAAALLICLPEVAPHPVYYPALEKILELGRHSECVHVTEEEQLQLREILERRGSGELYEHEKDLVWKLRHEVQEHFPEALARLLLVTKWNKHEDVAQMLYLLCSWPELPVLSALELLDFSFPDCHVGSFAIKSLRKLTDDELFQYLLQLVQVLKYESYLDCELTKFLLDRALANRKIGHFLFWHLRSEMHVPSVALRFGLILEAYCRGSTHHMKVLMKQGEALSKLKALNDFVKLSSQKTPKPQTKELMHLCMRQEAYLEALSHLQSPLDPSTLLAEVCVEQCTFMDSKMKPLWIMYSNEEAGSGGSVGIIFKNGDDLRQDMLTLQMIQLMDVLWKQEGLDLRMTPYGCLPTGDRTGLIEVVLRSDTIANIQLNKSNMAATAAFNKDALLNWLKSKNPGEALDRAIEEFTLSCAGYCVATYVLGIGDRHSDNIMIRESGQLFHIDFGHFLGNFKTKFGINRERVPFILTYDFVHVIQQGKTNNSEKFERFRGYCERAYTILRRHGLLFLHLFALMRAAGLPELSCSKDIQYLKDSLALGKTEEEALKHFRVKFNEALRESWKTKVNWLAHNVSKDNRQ
Chain of PI3K isoform δ (P27986 whole entry partner, canonical isoform): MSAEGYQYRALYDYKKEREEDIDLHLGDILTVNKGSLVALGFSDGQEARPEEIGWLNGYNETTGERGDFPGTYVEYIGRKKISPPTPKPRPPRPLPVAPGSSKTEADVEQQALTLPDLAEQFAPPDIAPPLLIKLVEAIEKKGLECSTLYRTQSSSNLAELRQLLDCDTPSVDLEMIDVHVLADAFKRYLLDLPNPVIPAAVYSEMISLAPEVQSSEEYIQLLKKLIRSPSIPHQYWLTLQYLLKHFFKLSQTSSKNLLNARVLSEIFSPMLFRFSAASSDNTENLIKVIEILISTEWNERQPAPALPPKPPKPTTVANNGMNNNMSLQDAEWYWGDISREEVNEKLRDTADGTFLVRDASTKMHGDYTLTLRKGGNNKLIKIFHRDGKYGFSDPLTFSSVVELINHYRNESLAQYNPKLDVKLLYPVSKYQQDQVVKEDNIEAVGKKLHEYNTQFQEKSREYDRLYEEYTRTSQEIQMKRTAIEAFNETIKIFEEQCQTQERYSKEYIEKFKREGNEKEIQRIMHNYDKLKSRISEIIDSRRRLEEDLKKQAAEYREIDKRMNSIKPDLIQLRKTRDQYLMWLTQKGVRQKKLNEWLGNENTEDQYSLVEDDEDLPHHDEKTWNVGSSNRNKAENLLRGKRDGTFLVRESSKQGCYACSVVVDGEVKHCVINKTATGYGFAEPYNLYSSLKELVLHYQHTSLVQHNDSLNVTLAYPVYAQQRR
Text: TR-FRET monitored the formation of 3,4,5-inositol triphosphate molecule that competed with fluorescently labeled PIP3 for binding to the GRP-1 pleckstrin homology domain protein. […] Class I PI3K isoforms were expressed and purified as heterodimeric recombinant proteins. All assay reagents and buffers for the TR-FRET assay were purchased from Millipore.

SMILES | IC50 [3] | also measured
CS(=O)(=O)c1cccc2nc([C@@H]3CCCN3c3nc(N)nc(N)c3C#N)n(-c3ccccc3F)c(=O)c12 (atropisomer, axis not shown) [Compound 73, (S)-2,4-diamino-6-(2-(3-(2-fluorophenyl)-5-(methylsulfonyl)-4-oxo-3,4-dihydroquinazolin-2-yl)pyrrolidin-1-yl)pyrimidine-5-carbonitrile] | – | IC50 [1]: 4 nM
CS(=O)(=O)c1cccc2nc([C@@H]3CCCN3c3nc(N)nc(N)c3C#N)n(-c3ccccc3F)c(=O)c12 (atropisomer, axis not shown) [Compound 74, (S)-2,4-diamino-6-(2-(3-(2-fluorophenyl)-5-(methylsulfonyl)-4-oxo-3,4-dihydroquinazolin-2-yl)pyrrolidin-1-yl)pyrimidine-5-carbonitrile] | – | IC50 [1]: 3 nM
N#Cc1c(N)nc(N)nc1NC(c1nc2cccc(F)c2c(=O)n1-c1cccc(F)c1)C1CC1 (single isomer, unassigned) [Compound 15a, 2,4-diamino-6-((cyclopropyl(5-fluoro-3-(3-fluorophenyl)-4-oxo-3,4-dihydroquinazolin-2-yl)methyl)amino)pyrimidine-5-carbonitrile] | – | IC50: 6 nM
CS(=O)(=O)c1cccc2nc(C(Nc3nc(N)nc(N)c3C#N)C3CC3)n(-c3ccccc3F)c(=O)c12 (single isomer, unassigned) [Compound 17a-1] | – | IC50 [2]: 6 nM
CS(=O)(=O)c1cccc2nc(C(Nc3nc(N)nc(N)c3C#N)C3CC3)n(-c3ccccc3F)c(=O)c12 (single isomer, unassigned) [Compound 17a-2] | – | IC50 [2]: 8 nM
N#Cc1c(N)nc(N)nc1N1CCC[C@H]1c1nc2c(Cl)ccc(Cl)c2c(=O)n1-c1cccc(S(N)(=O)=O)c1 (single isomer, unassigned) [Compound 92] | – | IC50 [1]: 7 nM
N#Cc1c(N)nc(N)nc1N[C@H](c1nc2cccc(C#N)c2c(=O)n1-c1ccccc1)C1CC1 [Compound 1a, (S)-2-(cyclopropyl((2,6-diamino-5-cyanopyrimidin-4-yl)amino)methyl)-4-oxo-3-phenyl-3,4-dihydroquinazoline-5-carbonitrile] | 5 nM | –
N#Cc1c(N)nc(N)nc1N[C@H](c1nc2c(F)ccc(C#N)c2c(=O)n1-c1ccccc1)C1CC1 [Compound 2a, (S)-2-(cyclopropyl((2,6-diamino-5-cyanopyrimidin-4-yl)amino)methyl)-8-fluoro-4-oxo-3-phenyl-3,4-dihydroquinazoline-5-carbonitrile] | 10 nM | –
N#Cc1c(N)nc(N)nc1N[C@@H](c1ccccc1)c1nc2cccc(Cl)c2c(=O)n1-c1ccccc1 [Compound 3a, (S)-2,4-diamino-6-(((5-chloro-4-oxo-3-phenyl-3,4-dihydroquinazoline-2-yl)(phenyl)methyl)amino)pyrimidine-5-carbonitrile] | 0.3 nM | –
N#Cc1c(N)nc(N)nc1N[C@H](c1nc2cccc(C#N)c2c(=O)n1-c1cc(F)cc(C(F)F)c1)C1CC1 [Compound 4a] | 49 nM | –
CS(=O)(=O)c1cccc2nc([C@@H](Nc3nc(N)nc(N)c3C#N)C3CC3)n(-c3cccc(F)c3)c(=O)c12 [Compound 5a, (S)-2,4-diamino-6-((cyclopropyl(3-(3-fluorophenyl)-5-(methylsulfonyl)-4-oxo-3,4-dihydroquinazolin-2-yl)methyl)amino)pyrimidine-5-carbonitrile] | 5 nM | –
CS(=O)(=O)c1cccc2nc([C@@H](Nc3nc(N)nc(N)c3C#N)C3CC3)n(-c3c(F)cccc3F)c(=O)c12 [Compound 6a, (S)-2,4-diamino-6-((cyclopropyl(3-(2,6-difluorophenyl)-5-(methylsulfonyl)-4-oxo-3,4-dihydroquinazolin-2-yl)methyl)amino)pyrimidine-5-carbonitrile] | 41 nM | –
N#Cc1c(N)nc(N)nc1N[C@H](c1nc2ccc(F)c(C#N)c2c(=O)n1-c1cccc(F)c1)C1CC1 [Compound 7a, (S)-2-(cyclopropyl((2,6-diamino-5-cyanopyrimidin-4-yl)amino)methyl)-6-fluoro-3-(3-fluorophenyl)-4-oxo-3,4-dihydroquinazoline-5-carbonitrile] | 6 nM | –
